Measured values from PubChem BioAssay AID328 (DTP/NCI, 2004).
Where “and” joins values, the source holds several entries; their conditions need not be identical. Identical values can stand only once. Inconclusive results and toxic doses are left out. The calls were made as follows: active = survival T/C of 150% or more; inactive = T/C below 125% in these data.

Tested on: BDF1 mice, P388 leukemia ip, median survival T/C
Assay: NCI In Vivo Anticancer Drug Screen. Data for tumor model P388 Leukemia (intraperitoneal) in B6D2F1 (BDF1) mice
Settings: endpoint: median survival time, higher = longer survival
Method in brief: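 Transplantable tumour in mice; compound vs vehicle dosing; survival scored; ratio of treated to control reported.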

[1] = dose: 100.0 mg/kg/injection, schedule: Q04DX003 (ip), vehicle: saline with Tween-80
[2] = dose: 200.0 mg/kg/injection, schedule: Q04DX003 (ip), vehicle: saline with Tween-80
[3] = dose: 100.0 mg/kg/injection, schedule: Q01DX009 (ip), vehicle: Klucel (hydroxypropylcellulose) (HPC)
[4] = dose: 12.5 mg/kg/injection, schedule: Q04DX003 (ip), vehicle: saline with Tween-80
[5] = dose: 400.0 mg/kg/injection, schedule: Q04DX003 (ip), vehicle: saline with Tween-80

Measured: T/C

CCOc1ccc(S(=O)(=O)c2ccc(C)cc2)c2c1no[n+]2[O-]
inactive: dose: 15.0 mg/kg/injection, schedule: Q01DX009 (ip), vehicle: saline with Tween-80 102 % of control

Cc1cc(C)c(C#N)c([S][Sn]([Cl])([Cl])[S]c2nc(C)cc(C)c2C#N)n1
inactive: [1] 97 % of control | [2] 98 % of control

COc1ccc(/C=C(C(=O)O)/C(=C/c2ccc(OC)c(OC)c2)C(=O)O)cc1OC
inactive: [3] 100 % of control | dose: 200.0 mg/kg/injection, schedule: Q01DX009 (ip), vehicle: Klucel (hydroxypropylcellulose) (HPC) 109 % of control | dose: 200.0 mg/kg/injection, schedule: Q04DX003 (ip), vehicle: Klucel (hydroxypropylcellulose) (HPC) 95 % of control | dose: 400.0 mg/kg/injection, schedule: Q01DX009 (ip), vehicle: Klucel (hydroxypropylcellulose) (HPC) 95 % of control | dose: 400.0 mg/kg/injection, schedule: Q04DX003 (ip), vehicle: Klucel (hydroxypropylcellulose) (HPC) 112 % of control

CCCCCCCCCCCCCCCCNC(C)c1ccccc1 (configuration not stated)
inactive: [4] 101 % of control | dose: 25.0 mg/kg/injection, schedule: Q04DX003 (ip), vehicle: saline with Tween-80 106 % of control

COc1ccc(-c2cc(=O)c3ccc4cc(OC)c(OC)cc4c3o2)cc1
inactive: dose: 1.56 mg/kg/injection, schedule: Q01DX009 (ip), vehicle: distilled water + Tween-80 102 % of control | dose: 3.13 mg/kg/injection, schedule: Q01DX009 (ip), vehicle: distilled water + Tween-80 86 % of control | dose: 6.25 mg/kg/injection, schedule: Q01DX009 (ip), vehicle: distilled water + Tween-80 87 % of control | dose: 12.5 mg/kg/injection, schedule: Q01DX009 (ip), vehicle: distilled water + Tween-80 89 % of control

Cc1ccnc(NS(=O)(=O)c2ccc(N=Nc3nc4[nH]c(N)nc(=S)c4[nH]3)cc2)n1
inactive: dose: 3.12 mg/kg/injection, schedule: Q01DX009 (ip), vehicle: Klucel (hydroxypropylcellulose) (HPC) 112 % of control | dose: 6.25 mg/kg/injection, schedule: Q01DX009 (ip), vehicle: Klucel (hydroxypropylcellulose) (HPC) 108 % of control
active: dose: 1.56 mg/kg/injection, schedule: Q01DX009 (ip), vehicle: Klucel (hydroxypropylcellulose) (HPC) 151 % of control

O=C1C(c2ccccc2)=S=C2Sc3ccccc3N12
inactive: dose: 25.0 mg/kg/injection, schedule: Q01DX009 (ip), vehicle: Klucel (hydroxypropylcellulose) (HPC) 100 % of control | dose: 25.0 mg/kg/injection, schedule: Q04DX003 (ip), vehicle: Klucel (hydroxypropylcellulose) (HPC) 90 % of control | dose: 50.0 mg/kg/injection, schedule: Q01DX009 (ip), vehicle: Klucel (hydroxypropylcellulose) (HPC) 110 % of control | dose: 50.0 mg/kg/injection, schedule: Q04DX003 (ip), vehicle: Klucel (hydroxypropylcellulose) (HPC) 90 % of control | [3] 105 % of control | dose: 100.0 mg/kg/injection, schedule: Q04DX003 (ip), vehicle: Klucel (hydroxypropylcellulose) (HPC) 100 % of control

CC(C)CC(=O)C1=C(O)C(Nc2ccccc2)=CC(=O)C1=Nc1ccccc1
inactive: [1] 106 % of control | [2] 118 % of control | [5] 111 % of control

O=C1N=C2C=CC=CN2C(=O)C1Cc1ccccc1 (configuration not stated)
inactive: [1] 96 % of control | [2] 100 % of control | [5] 104 % of control

CC(C)(C)c1cc(C(=O)O)c(Sc2c(C(=O)O)cc(C(C)(C)C)cc2C(C)(C)O)c(C(C)(C)O)c1
inactive: dose: 100.0 mg/kg/injection, schedule: Q01DX001 (ip), vehicle: saline with Tween-80 101 % of control | dose: 200.0 mg/kg/injection, schedule: Q01DX001 (ip), vehicle: saline with Tween-80 101 % of control | dose: 400.0 mg/kg/injection, schedule: Q01DX001 (ip), vehicle: saline with Tween-80 113 % of control

OC(CBr)(c1ccccc1)c1ccccc1
inactive: [4] 95 % of control | dose: 50.0 mg/kg/injection, schedule: Q04DX003 (ip), vehicle: saline with Tween-80 100 % of control and 115 % of control | [1] 99 % of control | [2] 112 % of control | [5] 111 % of control
